Results taken from patent publication US20100278782A1, “DIFFERENTIATION OF RAT LIVER EPITHELIAL CELLS INTO HEPATOCYTE-LIKE CELLS” (Vrije Universiteit Brussel, priority 2006, published 2010).

Legend:
rat hepatocyte HDAC = experiment: Fluor de Lys HDAC inhibition assay in crude rat hepatocyte lysates; format: biochemical; details: Fluor de Lys substrate, n = 3 or 4, read-out: Estimated IC50 values for tested compounds
Protocol: Screening of the HDAC inhibiting potencies of the above compounds was performed in crude rat hepatocyte lysates, prepared from freshly isolated cells, using the Fluor de Lys HDAC inhibition assay as detailed in example 9.
A two-step collagenase perfusion technique was used to isolate hepatocytes from male outbred Sprague-Dawley rats (200-300 g; Charles River Laboratories, Brussels, Belgium), which were kept under controlled environmental conditions (12 h light-dark cycle) and fed a standard diet (Animalabo A 04) with water ad libitum. Procedures for housing of the animals, and for isolation and cultivation of the rat hepatocytes were approved by the local ethical committee of the Vrije Universiteit Brussel (VUB, Brussels, Belgium).
Inhibition of HDAC activity was assessed in crude rat hepatocyte lysates by the Fluor de lys HDAC inhibition protocol as outlined herein:
HDAC Fluorescent Activity Assay/Drug Discovery Kit, Tebu-bio, AK-500.
• HDAC: thaw a rat hepatocyte cell extract (containing 6 mg/ml proteins) in tap water at room temperature, store on ice. • HDAC inhibitor:
Prepare a dilution series in assay buffer.
• Add 500 μl homogenisation buffer to 30×10^6 hepatocytes (pellets stored at −80° C.). • Ultrasonicate on ice 2×30 pulses • Let the homogenate(s) rest on ice during 5 min. • Transfer the homogenate(s) to 1.5 ml eppendorf tube(s) on ice, vortex vigorously. • Centrifugate at 14000 rpm in the microcentrifuge during 5 min at 4° C. • Determine the protein concentration (Bradford protein assay) of the supernatant, discard the pellets. • Dilute the extract(s) to a protein concentration of 6 mg/ml. Divide in aliquots of 500 μl (eppendorf tubes) and store for later use at −80° C.
1. bring 10 μl inhibitor/control solvents/assay buffer per well 2. add 15 μl cell extract to each well (for the blank: 15 μl boiled cell extract) 3. incubate 5 min at room temperature (cover plate with aluminium foil) 4. add 25 μl Fluor de Lys substrate to each well (40 μM solution, […]) 5. cover the plate with aluminium foil and incubate 15 min on orbital shaker 6. after 15 min, add 50 μl freshly prepared, ice-cold developer solution to each well 7. cover the plate with aluminium foil and incubate 15 min on orbital shaker 8. Measure the fluorescence in the plate reader
• Subtract the blank value (boiled extract) (background signal) • Calculate as % of ethanol control, that is set 100% • If the concentrations are spread around the 50% inhibition value, than the IC50 value can be calculated. […] (Note: the concentration should be set out as their logarithmic values)

primary rat hepatocytes [1] = experiment: Location of cell cycle arrest in primary rat hepatocytes from cell cycle marker expression; format: cell-based; details: 3 days incubation; absence of cyclin D1 and cdk1 protein expression, prior to the restriction point
Source text: Assessed as in example 11a.
The effect of the different 6C-spacer compounds on the expression of key cell cycle proteins was investigated as well in order to identify the location of the cell cycle arrest.
Two cell cycle markers were studied as detailed in example 11a (see FIG. 8 for results): (a) cyclin D1, this protein is typically expressed when hepatocytes were able to pass the restriction point located in the mid-late G1 phase; and (b) cdk1, which is a marker for the S/G2/M phase (DNA synthesis takes place in the S phase).
Hepatocytes (0.4×10^5 cells/cm^2) were cultured in duplicate in a mixture of MEM/M199 (3:1; v/v) and stimulated to proliferate with EGF (50 ng/ml) 4 h after plating. Exposure to the indicated concentrations of HDACi started at time of plating and was maintained for 3 consecutive days: Cells were then harvested and analyzed for cyclin D1 and cdk1 expression levels (20 μg proteins/lane). Total ERK staining serves as a loading control.

CYP2 B1 = experiment: Expression of CYP450 isoforms in rat primary hepatocytes; format: cell-based; details: 4 days exposure; expression lost in untreated controls
Protocol: (§1) Measured as in example 11b.
(§2) Furthermore, pro-differentiating effect of AN-6, AN-8 and AN-10 was examined as described in example 11b. Namely, the expression of phase I biotransformation markers, CYP 450 isoforms was examined. […] In comparison, the expression of latter proteins was lost in controls (untreated cells).
(§3) Hepatocytes (0.57×10^5 cells/cm^2) were cultured in Williams' E medium supplemented with insulin (0.5 μg/ml), glucagon (7 ng/ml) and hydrocortisone (25 μg/ml). Exposure to the indicated concentrations of HDACi started at time of plating and was maintained for 4 consecutive days. Cells were harvested at indicated time points and analyzed for CYP2 B1 and CYP1 A1 expression levels (40 μg proteins/lane).

primary rat hepatocytes [2] = experiment: Inhibition of DNA synthesis (3H-methylthymidine incorporation) in EGF-stimulated primary rat hepatocytes; format: cell-based; details: DNA synthesis at day 3 (72 h), EGF 50 ng/ml
Protocol: Results are expressed as percentage of positive control (untreated cells cultured in the presence of mitogen). Total inhibition of hepatocyte proliferation is considered when DNA synthesis of treated cells equals DNA synthesis level of negative control (untreated cells cultivated in the absence of mitogen). Results shown are the means±SD from 4 or more independent experiments.
Screening of the anti-proliferative activity of the above compounds (effect on DNA synthesis) was performed as in example 10a.
The maximal (100%) inhibition of rat primary hepatocyte proliferation has been achieved with following concentrations:
Dose-dependent inhibition of cell proliferation by Jung-type HDACi after 3 days of incubation. Hepatocytes (0.4×10^5 cells/cm^2) were cultured in duplicate in a mixture of MEM/M199 (3:1, v/v) and stimulated to proliferate with EGF (50 ng/ml) 4 h after plating. Exposure to the indicated concentrations of HDACi started at time of plating and was maintained for 3 consecutive days. ^3H-methylthymidine incorporation was measured at day 3 (72 h) of culture. Cells cultured in the absence of EGF serve as a negative control for hepatocyte proliferation (neg. contr.) whereas cells stimulated with EGF alone serve as a positive control for hepatocyte proliferation (pos. contr.). Results are expressed as the percentage of maximal incorporation observed in hepatocytes cultured in the presence of EGF alone. Values shown are the means±SD of duplicate cultures of 3 experiments.

[3] = system: freshly isolated rat hepatocytes; details: incubated with freshly isolated rat hepatocytes, compared with TSA; cited from earlier work
HDAC = details: literature statement; cited from earlier work
HNF-1α = experiment: LETF immunofluorescence during hepatic differentiation of RLECs; format: cell-based, rat; details: TSA added to Sequential 3 differentiation protocol
Protocol: (§4) A: HNF-3b, B: HNF-4, C: HNF-1a, a: with DAPI counterstain, b: without DAPI counterstain.
(§5) • rinse cells 3× with PBS • fix nuclear and cytoplasmic proteins at room temperature for 10 min with 4% PFA (cold), connexins at −20° C. for 10 min with Ethanol/Aceton (50/50) and cytoskeletal proteins at −20° C. for 10 min with Ethanol. • wash 3×5 min with PBS • proceed with staining or store wells in PBS at 4° C. • check cells under microscope for autofluorescence and attachment • incubate 15 min with 100 mM glycin in PBS (used to saturate reactive groups generated after PFA fixation) • wash 3×5 min with PBS • incubate 15 min with PBST (permeabilization) • rinse 3× with PBS • block 45 min with block buffer at room temperature • incubate overnight at 4° C. with primary Ab diluted in PBS • rinse with PBS • wash 4×15 min with PBS • incubate with fluorescence-labeled secondary Ab 1 h 30 at room temperature (dilute Ab in PBS) • keep dark • wash 4×15 min with PBST • rinse with distilled water • mount with Vectashield with DAPI (use 3 drops per well)
(§6) For this experiment, the protocols of example 5 were used to differentiate RLECs towards the hepatic lineage with the exception of the sequential procedure. Sequential 3 from example 6 was used to differentiate the cells instead of the one stated in example 5. The immunofluorescence protocol-staining on cultured cells was used as stated in example 8.

HNF-3β = experiment: as above; format: cell-based, rat; details: TSA added to Sequential 3 differentiation protocol
Protocol: as §4, §5, §6

HNF-4 = experiment: as above; format: cell-based, rat; details: TSA added to Sequential 3 differentiation protocol
Protocol: as §4, §5, §6

RLEC = experiment: Morphology of RLEC differentiated in the presence of an HDAC inhibitor; format: cell-based, rat
Protocol: FIG. 15 illustrates morphology of RLEC differentiated in the presence of an HDAC inhibitor, as explained in example 13.
RLEC at 100% confluence are used for differentiation into hepatocyte-like cells: • after sub-cultivation, detach cells as described above and suspend all cells derived from 1 T75 and 1 T150 in 3 ml and 6 ml of new growth medium (37° C.), respectively. • homogenize the cell suspension by pipetting up and down. • add 420 μl growth medium to a 2 cm^2-well • transfer 80 μl of cell suspension to the middle of a 2 cm^2-well, precoated with 50-100 μg/ml collagen type I • tap to homogenize cell suspension; check cells under microscope • incubate cells at 37° C. in growth medium until cells have reached 100% confluence. • At 100% confluence, remove growth medium and expose cells to basal medium supplemented with liver specific factors, as follows: 1. days 0-1: 10 ng/ml FGF-4 2. days 1-3: 10 ng/ml FGF-4, 20 ng/ml HGF 3. days 3-6: 5 ng/ml FGF-4, 30 ng/ml HGF, 0.5×ITS 4. days 6-9: 30 ng/ml HGF, 0.25×ITS; 0.05 μM dexamethasone 5. days 9-12: 20 ng/ml HGF, 0.05 μM dexamethasone 6. days 12-15: 10 ng/ml HGF; 10 ng/ml OSM, 0.05 μM dexamethasone 7. From day 15 on: 10 ng/ml OSM, 0.05 μM dexamethasone
RLEC are differentiated without initial FGF-4 exposure, according to the following sequence:
1. days 0-3: 20 ng/ml HGF 2. days 3-6: 5 ng/ml FGF-4, 30 ng/ml HGF, 0.5×ITS 3. days 6-9: 30 ng/ml HGF, 0.25×ITS; 0.05 μM dexamethasone 4. days 9-12: 20 ng/ml HGF, 0.05 μM dexamethasone 5. days 12-15: 10 ng/ml HGF; 10 ng/ml OSM, 0.05 μM dexamethasone 6. From day 15 on: 10 ng/ml OSM, 0.05 μM dexamethasone
The results are illustrated in FIG. 15. […] The cells still have the characteristic RLEC shape. […] Optimisation of HDAC inhibitor concentration to reduce cell death is within the reach of a skilled person.

CYP1 A1 = experiment: Expression of CYP450 isoforms in rat primary hepatocytes; format: cell-based; details: 4 days exposure; expression lost in untreated controls
Protocol: as §1, §2, §3

## CN(C)c1ccc(C(=O)NCCCCCC(=O)NO)cc1 [AN-6, 6-(4-dimethylaminobenzoyl)-aminocaproic acid hydroxamid]
Rat hepatocyte HDAC
  IC50: 24 ± 2 nM
Primary rat hepatocytes [1]
  Cell cycle arrest: induced an early G1 cell cycle arrest
CYP2 B1
  CYP2 B1 expression during the entire culture period: remarkable ability to maintain
Primary rat hepatocytes [2]
  Concentration achieving maximal (100%) inhibition of rat primary hepatocyte proliferation: 10 µM

## O=C(CCCCCNC(=O)c1ccc(N2CCCCC2)cc1)NO [AN-15]
Rat hepatocyte HDAC
  IC50: 500 ± 108 nM

## CN(C)c1ccc(C(=O)NCCCCC(=O)NO)cc1 [AN-1, 5-(4-dimethylaminobenzoyl)-aminovaleric acid hydroxamid]
Rat hepatocyte HDAC
  IC50: 301 ± 28 nM
Primary rat hepatocytes [2]
  Concentration achieving maximal (100%) inhibition of rat primary hepatocyte proliferation: 50 µM

## O=C(CCCCCNC(=O)c1ccc(Cl)cc1)NO [AN-7]
Rat hepatocyte HDAC
  IC50: 84 ± 27 nM

## CN(C)c1ccc(C(=O)NCCCCC(=O)NO)cc1
[3]
  Metabolic stability: metabolically more stable than TSA
HDAC
  HDAC inhibitory activity: potent HDAC inhibitor

## O=C(CCCCNC(=O)c1ccc(N2CCCCC2)cc1)NO [AN-13]
Rat hepatocyte HDAC
  IC50: 2250 ± 616 nM

## O=C(CCCCCNC(=O)c1ccc(N2CCOCC2)cc1)NO [AN-16]
Rat hepatocyte HDAC
  IC50: 1010 ± 310 nM

## CC(/C=C/C(=O)NO)=C\[C@@H](C)C(=O)c1ccc(N(C)C)cc1 [TSA, Trichostatin A]
HNF-1α
  HNF-1α expression and localisation: induces expression of HNF-1α in nucleus already on D3
HNF-3β
  HNF-3β expression and localisation: already expressed at D3 of the differentiation process and is located inside the nucleus
HNF-4
  HNF-4 expression and activity: expressed and active from D3 onwards, either with or without addition of TSA
RLEC; 320 nM, D2, example 13 sequence
  Morphology of differentiating RLEC: more polygonal shape
RLEC; 1 μM, D9, example 13 sequence
  Morphology of differentiating RLEC: differentiate into binuclear, polygonal to cuboidal shaped cells
RLEC; 1 μM, example 13 sequence
  Cell death of differentiating RLEC: causes some cell death
RLEC; protocol of example 5 with TSA addition
  Morphology of differentiating RLEC: more fibroblast like shape
HDAC
  HDAC inhibitory activity: potent specific inhibitor of Class I and Class II HDAC in vitro and in vivo

## O=C(CCCCCNC(=O)c1ccccc1)NO [AN-5]
Primary rat hepatocytes [1]
  Cell cycle arrest: able to induce a similar early G1 cell cycle arrest
Primary rat hepatocytes [2]
  Concentration achieving maximal (100%) inhibition of rat primary hepatocyte proliferation: 50 µM

## O=C(CCCCNC(=O)c1cc2ccccc2[nH]1)NO [AN-9]
Rat hepatocyte HDAC
  IC50: 313 ± 50 nM

## O=C(CCCCCNC(=O)c1cc2ccccc2[nH]1)NO [AN-10]
Rat hepatocyte HDAC
  IC50: 14 ± 4 nM
Primary rat hepatocytes [1]
  Cell cycle arrest: induced an early G1 cell cycle arrest
CYP1 A1
  CYP1 A1 expression during the entire culture period: remarkable ability to maintain
Primary rat hepatocytes [2]
  Concentration achieving maximal (100%) inhibition of rat primary hepatocyte proliferation: 7.5 µM

## O=C(CCCCNC(=O)c1ccc(N2CCOCC2)cc1)NO [AN-14]
Rat hepatocyte HDAC
  IC50: 4490 ± 1820 nM

## O=C(CCCCCNC(=O)c1ccc(N2CCCC2)cc1)NO [AN-8]
Rat hepatocyte HDAC
  IC50: 55 ± 19 nM
Primary rat hepatocytes [1]
  Cell cycle arrest: induced an early G1 cell cycle arrest
Primary rat hepatocytes [2]
  Concentration achieving maximal (100%) inhibition of rat primary hepatocyte proliferation: 7.5 µM
